Assay results as given in patent publication US8808715B1, “Methods and compositions for modulating keratinocyte function” (Georgia Regents Research Institute, Inc, priority 2004, dated 2014).

Columns and labels:
Type in all cases: cell-based, mouse
[1] = test system: primary epidermal keratinocytes; experiment: Radiolabeled phosphatidylglycerol formation in intact keratinocytes
Experimental: Primary epidermal keratinocytes were prepared from 1-3-day old neonatal ICR mice after trypsin flotation of the skin and mechanical separation of the epidermis from the dermis. The epidermal cells were released by scraping, collected by centrifugation and plated in 6-well dishes in a medium consisting of MEM containing 25 μM calcium, 2% dialyzed fetal bovine serum, 2 mM glutamine, 5 ng/mL EGF, ITS (6.25 μg/mL insulin+6.25 μg/mL transferrin+6.25 ng/mL selenious acid+5.35 μg/mL linoleic acid+1.25% bovine serum albumin), 100 U/mL penicillin, 100 μg/mL streptomycin and 0.25 μg/mL fungizone. After an overnight incubation, the cells were refed with serum-free keratinocyte medium (SFKM), in which 2% dialyzed fetal bovine serum was replaced with 90 μg/mL bovine pituitary extract. Cells were refed with fresh medium every 1-3 days.
For the PLD assay cultured primary keratinocytes were labeled for 20-24 hours with 2.5 μCi/ml [^3H] oleic acid. The cells were then exposed to vehicle or 100 nM PMA in the presence of 0.5% ethanol for 30 minutes. To measure the formation of radiolabeled phosphatidylglycerol, cells were treated for 24 hours with SFKM containing vehicle, 250 nM 1,25-dihydroxyvitamin D3 or 125 μM calcium and then labeled for an additional 30 minutes with 1-2.5 μCi/mL [^3H] or 0.4-0.5 μCi/mL [^14C]glycerol. For experiments investigating the extracellular calcium dependence of PG formation, cells were incubated for 24 hours in SFKM containing various calcium concentrations prior to the addition of 5 μCi/mL [^3H]glycerol for 30 minutes. In some cases, cells were stimulated with 25 μM calcium (control)—or 125 μM calcium-containing SFKM for 24 hours prior to the addition of [^14C]glycerol in the presence and absence of 1% ethanol. To measure phosphatidylglycerol formation in response to PMA, unlabeled cells were stimulated with 100 nM PMA in the presence of radiolabeled glycerol, as above. Reactions were terminated and the radiolabeled phosphatidylalcohol extracted, separated by thin-layer chromatography and quantified as described by Bollag (1998), referenced above.

[2] = test system: keratin 10 promoter; experiment: Co-transfection analysis, keratin 10 promoter-luciferase reporter; settings: 1 mM calcium, 24 hours
Experimental: The keratin 5 and keratin 10 promoter-luciferase constructs were provided by of Dr. Bogi Andersen (University of California, Irvine, Calif.); the involucrin promoter-luciferase construct was provided by Dr. Daniel Bikle (University of California, San Francisco, Calif.). Sub-confluent (approximately 30%) keratinocytes were transfected using TransIT-Keratinocyte according to the manufacturer's instructions. After 24 hours cells were refed with medium containing 25 μM (control) or 1 mM-Ca^2+ for an additional 24 hours. Luciferase activity was then measured using the Dual Luciferase Reporter Assay kit (Promega, Madison, Wis.) as directed by the manufacturer.

[3] = test system: keratinocytes; experiment: Release of radiolabel from [14C]glycerol-labeled lipids by bacterial PLD (headgroup position); settings: 125 μM calcium pretreatment 24 hours, means±SEM
Experimental: Keratinocytes pretreated for 24 hours with control (25 μM calcium) or 125 μM calcium-containing medium were exposed to 0.4-0.5 μCi/mL [^14C]glycerol for an additional 30 minutes. Lipids were extracted into chloroform/methanol as described above. Dried lipid extracts were then solubilized in phospho lipase buffer (100 mM Tris, pH 7.4, 6 mM MgCl2+0.1% Triton-X100) by extensive vortexing and a short incubation at 37° C. and approximately half of each extract was transferred into a clean tube. Distilled water (untreated) or 1 IU/mL (final concentration) of Streptomyces chromofuscus PLD (Sigma, St. Louis, Mo.) diluted in distilled water (PLD-treated) was then added to each of the lipid extract samples, which were incubated at 37° C. for 60 minutes. Released headgroups were then separated from phospholipids by extraction into the aqueous layer, essentially according to the method of Folch. […] A portion of the upper aqueous layer was then collected and quantified by liquid scintillation spectrometry. PLD-released radioactivity in the aqueous phase was calculated as the amount released in the PLD-treated sample minus the amount detected in the corresponding untreated sample. […] This lipid extract was then separated by thin-layer chromatography and PG and phosphatidic acid in the samples quantified as above.

`[Ca+2]` [calcium] was tested, and the “radiolabeled PG formation relative to control cells” value ([1]; 24 hours pretreatment (250 nM 1,25-dihydroxyvitamin D3 or 125 μM calcium), then [3H]glycerol 30 minutes) was “induced an increase in the subsequent production of PG”, the “calcium concentration giving maximal stimulation of radiolabeled PG formation” value ([1]; range 25 μM (control) to 1 mM, 24 hours, biphasic dose dependence) was 125 µM and the “inhibition of keratin 10 expression (promoter activity)” value [2] was 22%. The “radiolabel released into aqueous fraction by bacterial PLD from lipid extracts” value ([3]; p<0.001) was 4.2±0.4 fold over the control level and the “radioactivity released by bacterial PLD from isolated PG” value ([3]; p<0.01) was 3.3±0.5 fold over the control level.
